ChEMBL document CHEMBL1201862, “PubChem BioAssay data set” (2004)
Calls of active or inactive are those of the source.

Tests used:
[1] = biological target: G-protein coupled receptor 35 (Homo sapiens, UniProt Q9HC97); assay: inhibition of zaprinast-stimulated GPR35 beta-arrestin translocation – imaging, U2OS, beta-arrestin-GFP, zaprinast agonist, primary screen (AID 2058); type: functional;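 further: antagonist potency meaning inhibition of agonist-induced arrestin redistribution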
[2] = biological target: 26S proteasome non-ATPase regulatory subunit 14 (Homo sapiens, UniProt O00487); assay: inhibition of proteasome subunit RPN11 – biochemical, fluorescence polarization, uHTS hits, confirmation (AID 602368); type: functional
[3] = biological target: 72 kDa type IV collagenase (Homo sapiens, UniProt P08253); assay: Dose Response validation of uHTS RPN11 inhibitor hits using a MMP-2 Fluorescence assay.; type: functional
[4] = biological target: Prothrombin (Bos taurus, UniProt P00735); assay: thrombin protease inhibitors – biochemical, fluorescence polarization, uHTS hits, dose response (AID 602369); type: functional
[5] = biological target: T1, Histone-lysine N-methyltransferase NSD2 (Homo sapiens, UniProt O96028); type: biochemical
T1 sequence (O96028 whole entry): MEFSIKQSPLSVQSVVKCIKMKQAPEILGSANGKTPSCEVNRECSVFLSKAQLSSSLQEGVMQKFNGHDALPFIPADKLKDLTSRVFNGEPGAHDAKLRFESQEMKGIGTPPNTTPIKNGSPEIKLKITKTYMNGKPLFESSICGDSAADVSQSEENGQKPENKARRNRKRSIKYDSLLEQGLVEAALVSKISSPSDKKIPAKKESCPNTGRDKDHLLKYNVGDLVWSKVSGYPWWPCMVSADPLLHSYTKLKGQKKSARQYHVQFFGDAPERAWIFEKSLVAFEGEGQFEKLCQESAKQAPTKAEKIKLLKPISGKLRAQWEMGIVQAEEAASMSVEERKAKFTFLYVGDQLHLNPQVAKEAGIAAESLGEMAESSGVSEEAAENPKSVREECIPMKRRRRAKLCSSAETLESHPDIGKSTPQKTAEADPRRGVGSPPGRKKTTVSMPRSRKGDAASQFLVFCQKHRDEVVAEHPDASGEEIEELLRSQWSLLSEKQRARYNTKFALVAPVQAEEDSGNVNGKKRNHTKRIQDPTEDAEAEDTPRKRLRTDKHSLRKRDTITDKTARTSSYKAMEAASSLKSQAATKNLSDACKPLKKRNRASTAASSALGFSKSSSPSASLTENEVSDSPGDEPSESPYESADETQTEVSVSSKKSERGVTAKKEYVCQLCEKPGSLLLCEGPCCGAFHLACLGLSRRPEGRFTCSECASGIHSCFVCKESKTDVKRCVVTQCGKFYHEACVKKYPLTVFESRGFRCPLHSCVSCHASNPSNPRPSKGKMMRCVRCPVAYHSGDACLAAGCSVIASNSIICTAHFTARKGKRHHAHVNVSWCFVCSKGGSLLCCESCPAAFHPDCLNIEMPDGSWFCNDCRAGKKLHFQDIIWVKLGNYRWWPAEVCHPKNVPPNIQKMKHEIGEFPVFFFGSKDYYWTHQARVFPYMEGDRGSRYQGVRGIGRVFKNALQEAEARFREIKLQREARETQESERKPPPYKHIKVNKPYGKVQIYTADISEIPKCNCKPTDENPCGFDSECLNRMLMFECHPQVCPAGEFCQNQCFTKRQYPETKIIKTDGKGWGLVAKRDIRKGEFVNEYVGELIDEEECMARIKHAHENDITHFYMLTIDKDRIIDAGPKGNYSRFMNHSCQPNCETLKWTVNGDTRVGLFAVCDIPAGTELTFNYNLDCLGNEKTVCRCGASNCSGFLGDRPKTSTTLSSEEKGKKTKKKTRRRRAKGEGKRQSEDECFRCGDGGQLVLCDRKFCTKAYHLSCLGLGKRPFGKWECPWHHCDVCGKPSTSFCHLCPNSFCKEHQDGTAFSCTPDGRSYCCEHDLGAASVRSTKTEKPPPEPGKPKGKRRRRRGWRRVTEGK

[6] = biological target: T2, Aminopeptidase N (Plasmodium falciparum FcB1/Columbia, UniProt O96935); assay: malaria alanyl aminopeptidase activity blockers – biochemical, fluorogenic H-Leu-NHMec substrate, 1536-well (AID 1445); parameters: species or system Plasmodium falciparum 3D7, 3D7
T2 sequence (O96935 whole entry): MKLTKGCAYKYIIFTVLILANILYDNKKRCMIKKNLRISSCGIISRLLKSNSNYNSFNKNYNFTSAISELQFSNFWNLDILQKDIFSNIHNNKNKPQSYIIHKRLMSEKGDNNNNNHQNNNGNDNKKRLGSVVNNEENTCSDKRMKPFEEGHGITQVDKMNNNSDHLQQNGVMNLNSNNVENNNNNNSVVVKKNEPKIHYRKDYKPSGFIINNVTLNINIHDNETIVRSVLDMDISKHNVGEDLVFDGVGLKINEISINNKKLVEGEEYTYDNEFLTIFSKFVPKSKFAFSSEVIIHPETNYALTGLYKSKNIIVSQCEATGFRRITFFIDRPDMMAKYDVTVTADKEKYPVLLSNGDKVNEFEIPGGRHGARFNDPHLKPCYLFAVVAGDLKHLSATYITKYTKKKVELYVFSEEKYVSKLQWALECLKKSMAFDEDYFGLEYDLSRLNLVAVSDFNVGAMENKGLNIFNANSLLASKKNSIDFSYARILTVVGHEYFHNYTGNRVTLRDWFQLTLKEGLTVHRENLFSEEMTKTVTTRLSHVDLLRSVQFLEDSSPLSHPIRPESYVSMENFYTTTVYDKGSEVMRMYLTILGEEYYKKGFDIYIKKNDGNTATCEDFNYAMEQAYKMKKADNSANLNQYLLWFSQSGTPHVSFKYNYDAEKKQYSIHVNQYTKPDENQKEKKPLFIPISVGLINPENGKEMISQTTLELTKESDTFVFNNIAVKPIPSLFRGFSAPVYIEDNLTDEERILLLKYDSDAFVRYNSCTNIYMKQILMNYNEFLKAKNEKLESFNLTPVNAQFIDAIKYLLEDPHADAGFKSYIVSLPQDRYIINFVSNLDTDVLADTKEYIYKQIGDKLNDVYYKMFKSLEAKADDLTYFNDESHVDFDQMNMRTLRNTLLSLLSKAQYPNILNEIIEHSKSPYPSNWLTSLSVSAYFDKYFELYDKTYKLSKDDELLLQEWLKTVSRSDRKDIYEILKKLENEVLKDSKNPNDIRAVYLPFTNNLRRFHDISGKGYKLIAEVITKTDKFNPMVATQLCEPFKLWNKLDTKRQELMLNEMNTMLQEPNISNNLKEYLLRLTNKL

[7] = biological target: Transitional endoplasmic reticulum ATPase (Homo sapiens, UniProt P55072, C522A); assay: C522A mutant p97 ATPase inhibitors, dose response, counter-screen for p97 inhibitor project, biochemical, luminescence (AID 1544)
[8] = biological target: Transitional endoplasmic reticulum ATPase (Homo sapiens, UniProt P55072); assay: p97 ATPase inhibitors, dose response, biochemical (AID 1534)
[9] = biological target: Signal transducer and activator of transcription 3 (Homo sapiens, UniProt P40763); assay: STAT3 activation with BCL3 mRNA and toxicity – cell-based, […], BCL3 qPCR, cytotoxicity, late-stage follow-up, panel member STAT3 Activation (AID 2049)
[10] = biological target: Lysosomal acid glucosylceramidase (Homo sapiens, UniProt P04062); assay: Dose response cell-based high throughput screening assay to identify enhancers of beta-glucosidase activity. [Related pubchem assays: 784 ]; type: functional
[11] = biological target: Bcl-2-like protein 10 (Homo sapiens, UniProt Q9HD36); assay: Bcl-B/TR3 peptide binding disruption – biochemical, fluorescence polarization, FITC-TR3 peptide, selectivity assay for Bfl-1 inhibitor project, primary screen (AID 748);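 further: fluorescence polarization from a fluorescein-labelled TR3 peptide binding purified Bcl-B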
[12] = biological target: T3, RNA-binding protein pos-1 (Caenorhabditis elegans, UniProt G5EF15); assay: disruptors of C. elegans POS-1 RNA interaction – biochemical, fluorescence polarization, dose response (AID 1964);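 further: purified POS-1 fused to maltose binding protein made in E. coli; potency of compounds blocking POS-1 binding to fluorescent RNA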
T3 sequence (G5EF15 whole entry): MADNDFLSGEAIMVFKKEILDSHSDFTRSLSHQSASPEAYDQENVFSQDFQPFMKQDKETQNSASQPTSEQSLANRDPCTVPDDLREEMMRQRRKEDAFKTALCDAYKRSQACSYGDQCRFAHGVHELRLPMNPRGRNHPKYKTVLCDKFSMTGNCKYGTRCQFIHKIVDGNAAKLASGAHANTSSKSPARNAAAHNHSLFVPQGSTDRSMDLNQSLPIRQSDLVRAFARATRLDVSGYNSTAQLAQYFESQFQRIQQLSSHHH

[13] = biological target: T4, Zinc finger protein mex-5 (Caenorhabditis elegans, UniProt Q9XUB2); assay: potency of MEX-5 RNA-binding blockers – biochemical, C. elegans, fluorescence polarization, dose response (AID 1960)
T4 sequence (Q9XUB2 whole entry): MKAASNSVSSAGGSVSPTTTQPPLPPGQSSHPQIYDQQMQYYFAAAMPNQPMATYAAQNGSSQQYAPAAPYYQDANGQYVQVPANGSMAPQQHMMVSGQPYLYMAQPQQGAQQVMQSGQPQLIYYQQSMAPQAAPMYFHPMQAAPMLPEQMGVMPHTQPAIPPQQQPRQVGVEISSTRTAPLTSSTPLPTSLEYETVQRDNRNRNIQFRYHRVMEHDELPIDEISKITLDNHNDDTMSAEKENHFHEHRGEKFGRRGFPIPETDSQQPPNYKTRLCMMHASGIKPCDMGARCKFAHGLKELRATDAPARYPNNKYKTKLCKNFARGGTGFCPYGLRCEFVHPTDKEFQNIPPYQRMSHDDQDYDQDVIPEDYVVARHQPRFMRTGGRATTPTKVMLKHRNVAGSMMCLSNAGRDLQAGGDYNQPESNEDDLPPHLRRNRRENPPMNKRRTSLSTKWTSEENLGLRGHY

[14] = biological target: T5, Estrogen receptor (Homo sapiens, UniProt P03372);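 further: potency for inhibiting coactivator peptide recruitment to the receptor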
T5 sequence (P03372 whole entry): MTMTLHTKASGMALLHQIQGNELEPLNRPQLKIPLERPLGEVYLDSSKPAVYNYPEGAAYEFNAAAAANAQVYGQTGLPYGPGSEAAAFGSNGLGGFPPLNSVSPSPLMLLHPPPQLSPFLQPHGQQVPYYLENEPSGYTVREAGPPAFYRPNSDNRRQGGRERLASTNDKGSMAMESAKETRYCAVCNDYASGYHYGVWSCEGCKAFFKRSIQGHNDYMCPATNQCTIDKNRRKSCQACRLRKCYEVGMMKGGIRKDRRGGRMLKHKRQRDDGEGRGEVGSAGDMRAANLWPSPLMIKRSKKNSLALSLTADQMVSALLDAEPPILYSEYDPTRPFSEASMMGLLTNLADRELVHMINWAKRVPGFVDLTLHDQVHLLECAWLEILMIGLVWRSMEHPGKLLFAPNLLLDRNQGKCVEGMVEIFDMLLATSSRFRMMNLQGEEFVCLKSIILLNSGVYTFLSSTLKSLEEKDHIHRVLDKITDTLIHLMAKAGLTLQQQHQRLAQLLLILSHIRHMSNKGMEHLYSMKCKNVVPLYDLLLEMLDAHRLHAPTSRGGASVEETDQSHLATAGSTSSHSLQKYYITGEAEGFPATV

[15] = biological target: Estrogen receptor beta (Homo sapiens, UniProt Q92731); assay: blockers of SRC-3 recruitment to ERβ – biochemical, ELISA, streptavidin-HRP readout, orthogonal assay, confirmation (AID 1060)
[16] = Cytotoxicity screening for potential Inhibitors of Bacterial Capsule Biogenesis. [Related pubchem assays (depositor defined):AID488970]; type: functional
[17] = test system: Trypanosoma cruzi; assay: anti-trypanosomal activity in host cells – cell-based, plate reader, dry powder, set 3, dose response (AID 493197); type: functional
[18] = biological target: Melanin-concentrating hormone receptor 1 (Homo sapiens, UniProt Q99705); assay: Late-stage fluorescence-based counterscreen for antagonists of the G-protein coupled receptor 7 (GPR7): cell-based dose response assay to identify antagonists of the melanin-concentrating hormone receptor 1 (MCHR1). [Related pubchem assays (depositor defined):AID1861, AID1880, AID1952, AID2148, AID2251, AID2257, AID485339]; type: functional;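 further: stimulated with 30 nM MCH peptide agonist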
[19] = biological target: T6, Neuropeptides B/W receptor type 1 (Homo sapiens, UniProt P48145); assay: human NPBW1 receptor blockade, IC50 – cell-based, fluorescence, dose response, late-stage follow-up (AID 463251); type: functional
T6 sequence (P48145 whole entry): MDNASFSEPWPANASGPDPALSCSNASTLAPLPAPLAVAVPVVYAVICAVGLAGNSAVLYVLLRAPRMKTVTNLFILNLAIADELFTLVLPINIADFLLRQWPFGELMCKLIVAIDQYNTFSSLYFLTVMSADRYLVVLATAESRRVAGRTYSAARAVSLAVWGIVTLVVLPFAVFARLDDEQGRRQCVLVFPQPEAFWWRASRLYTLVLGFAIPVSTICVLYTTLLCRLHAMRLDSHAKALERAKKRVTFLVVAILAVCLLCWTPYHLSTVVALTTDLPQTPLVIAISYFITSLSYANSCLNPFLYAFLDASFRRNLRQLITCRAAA

Transitional endoplasmic reticulum ATPase (Homo sapiens, UniProt P55072), sequence (P55072 whole entry): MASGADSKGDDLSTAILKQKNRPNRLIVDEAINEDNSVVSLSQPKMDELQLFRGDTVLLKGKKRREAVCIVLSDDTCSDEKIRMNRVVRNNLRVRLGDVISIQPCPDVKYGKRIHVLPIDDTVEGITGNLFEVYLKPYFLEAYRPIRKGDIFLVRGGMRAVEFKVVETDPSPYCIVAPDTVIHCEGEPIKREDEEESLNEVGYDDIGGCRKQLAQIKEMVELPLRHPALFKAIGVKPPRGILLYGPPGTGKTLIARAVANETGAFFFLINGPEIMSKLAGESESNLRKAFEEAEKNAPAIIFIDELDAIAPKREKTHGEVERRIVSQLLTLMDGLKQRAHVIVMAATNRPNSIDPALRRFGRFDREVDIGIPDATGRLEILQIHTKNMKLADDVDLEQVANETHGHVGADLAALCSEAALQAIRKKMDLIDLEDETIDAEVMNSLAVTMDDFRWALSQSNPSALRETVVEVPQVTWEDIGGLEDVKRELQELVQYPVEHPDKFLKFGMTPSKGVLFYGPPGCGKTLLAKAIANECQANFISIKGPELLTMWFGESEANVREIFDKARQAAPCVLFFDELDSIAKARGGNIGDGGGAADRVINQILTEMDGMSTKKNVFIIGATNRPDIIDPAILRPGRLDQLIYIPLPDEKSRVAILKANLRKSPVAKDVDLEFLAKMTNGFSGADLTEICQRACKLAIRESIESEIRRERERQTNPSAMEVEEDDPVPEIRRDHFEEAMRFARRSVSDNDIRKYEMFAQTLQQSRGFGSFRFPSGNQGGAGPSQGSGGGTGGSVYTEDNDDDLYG
26S proteasome non-ATPase regulatory subunit 14, sequence (O00487 whole entry): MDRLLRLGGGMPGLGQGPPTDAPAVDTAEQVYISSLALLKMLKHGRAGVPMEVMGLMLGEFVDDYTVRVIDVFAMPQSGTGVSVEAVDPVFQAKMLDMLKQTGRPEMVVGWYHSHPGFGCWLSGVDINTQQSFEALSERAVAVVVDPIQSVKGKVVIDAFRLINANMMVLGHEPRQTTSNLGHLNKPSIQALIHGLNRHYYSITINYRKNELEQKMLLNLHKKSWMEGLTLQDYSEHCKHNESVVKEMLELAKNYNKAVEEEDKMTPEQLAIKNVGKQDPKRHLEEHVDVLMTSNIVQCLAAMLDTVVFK
Estrogen receptor beta, sequence (Q92731 whole entry): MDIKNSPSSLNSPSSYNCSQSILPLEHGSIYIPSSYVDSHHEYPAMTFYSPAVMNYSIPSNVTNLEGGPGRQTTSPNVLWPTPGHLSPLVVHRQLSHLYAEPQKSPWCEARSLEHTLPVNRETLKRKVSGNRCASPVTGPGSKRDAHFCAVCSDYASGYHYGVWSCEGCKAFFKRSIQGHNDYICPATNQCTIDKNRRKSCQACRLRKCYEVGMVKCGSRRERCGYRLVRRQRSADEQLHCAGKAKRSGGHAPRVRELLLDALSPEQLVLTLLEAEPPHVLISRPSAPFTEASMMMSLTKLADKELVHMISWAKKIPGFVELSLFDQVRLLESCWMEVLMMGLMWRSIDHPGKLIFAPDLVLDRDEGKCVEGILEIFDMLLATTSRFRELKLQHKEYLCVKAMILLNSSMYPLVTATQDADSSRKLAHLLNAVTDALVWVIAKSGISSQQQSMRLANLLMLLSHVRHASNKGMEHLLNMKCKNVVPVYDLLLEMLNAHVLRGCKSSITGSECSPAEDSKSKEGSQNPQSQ
Lysosomal acid glucosylceramidase, sequence (P04062 whole entry): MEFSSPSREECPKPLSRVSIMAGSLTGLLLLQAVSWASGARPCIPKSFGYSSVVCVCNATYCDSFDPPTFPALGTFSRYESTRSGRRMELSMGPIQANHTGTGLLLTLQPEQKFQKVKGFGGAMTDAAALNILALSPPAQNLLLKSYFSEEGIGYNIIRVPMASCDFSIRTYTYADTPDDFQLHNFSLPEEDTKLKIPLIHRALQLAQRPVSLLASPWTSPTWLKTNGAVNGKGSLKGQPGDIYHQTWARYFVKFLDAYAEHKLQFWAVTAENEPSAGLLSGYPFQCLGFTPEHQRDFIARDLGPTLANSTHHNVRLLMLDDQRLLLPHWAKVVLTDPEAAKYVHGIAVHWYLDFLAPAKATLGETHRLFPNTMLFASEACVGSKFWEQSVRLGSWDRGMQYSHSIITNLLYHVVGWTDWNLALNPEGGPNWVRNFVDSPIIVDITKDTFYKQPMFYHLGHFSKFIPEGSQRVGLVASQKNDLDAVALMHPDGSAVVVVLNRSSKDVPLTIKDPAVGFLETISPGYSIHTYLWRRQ
Transitional endoplasmic reticulum ATPase (Homo sapiens, UniProt P55072, C522A), sequence (P55072 2-806 C522A limits assumed): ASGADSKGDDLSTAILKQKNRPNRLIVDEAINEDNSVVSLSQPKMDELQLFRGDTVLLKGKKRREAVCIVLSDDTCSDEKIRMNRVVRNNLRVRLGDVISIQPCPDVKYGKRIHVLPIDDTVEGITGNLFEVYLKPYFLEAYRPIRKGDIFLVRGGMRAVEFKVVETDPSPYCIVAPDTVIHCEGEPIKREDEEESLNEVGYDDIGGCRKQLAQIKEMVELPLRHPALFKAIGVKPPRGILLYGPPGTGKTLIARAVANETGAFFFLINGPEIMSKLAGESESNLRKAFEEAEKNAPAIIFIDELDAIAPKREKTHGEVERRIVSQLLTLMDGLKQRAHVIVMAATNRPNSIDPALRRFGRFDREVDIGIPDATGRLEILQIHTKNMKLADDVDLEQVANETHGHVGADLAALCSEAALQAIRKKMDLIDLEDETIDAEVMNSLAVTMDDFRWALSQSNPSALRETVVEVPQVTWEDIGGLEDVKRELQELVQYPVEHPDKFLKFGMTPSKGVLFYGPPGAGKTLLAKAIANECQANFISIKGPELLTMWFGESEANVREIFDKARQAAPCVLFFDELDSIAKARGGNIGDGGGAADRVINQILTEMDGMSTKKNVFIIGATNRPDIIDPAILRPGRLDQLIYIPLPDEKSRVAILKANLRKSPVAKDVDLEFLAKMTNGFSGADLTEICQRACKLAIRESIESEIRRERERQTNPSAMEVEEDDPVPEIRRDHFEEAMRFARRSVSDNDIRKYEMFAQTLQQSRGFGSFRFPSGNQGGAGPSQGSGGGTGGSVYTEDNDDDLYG
Melanin-concentrating hormone receptor 1, sequence (Q99705 whole entry): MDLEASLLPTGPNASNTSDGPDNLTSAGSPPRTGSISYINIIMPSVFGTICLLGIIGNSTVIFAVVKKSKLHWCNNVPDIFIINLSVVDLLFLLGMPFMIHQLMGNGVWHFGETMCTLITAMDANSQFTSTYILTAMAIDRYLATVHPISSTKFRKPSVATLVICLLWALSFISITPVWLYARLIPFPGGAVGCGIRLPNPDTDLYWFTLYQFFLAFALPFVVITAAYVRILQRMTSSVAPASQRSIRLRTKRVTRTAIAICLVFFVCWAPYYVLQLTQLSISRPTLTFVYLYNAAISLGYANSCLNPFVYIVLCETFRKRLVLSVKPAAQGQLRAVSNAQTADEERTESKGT
Signal transducer and activator of transcription 3, sequence (P40763 whole entry): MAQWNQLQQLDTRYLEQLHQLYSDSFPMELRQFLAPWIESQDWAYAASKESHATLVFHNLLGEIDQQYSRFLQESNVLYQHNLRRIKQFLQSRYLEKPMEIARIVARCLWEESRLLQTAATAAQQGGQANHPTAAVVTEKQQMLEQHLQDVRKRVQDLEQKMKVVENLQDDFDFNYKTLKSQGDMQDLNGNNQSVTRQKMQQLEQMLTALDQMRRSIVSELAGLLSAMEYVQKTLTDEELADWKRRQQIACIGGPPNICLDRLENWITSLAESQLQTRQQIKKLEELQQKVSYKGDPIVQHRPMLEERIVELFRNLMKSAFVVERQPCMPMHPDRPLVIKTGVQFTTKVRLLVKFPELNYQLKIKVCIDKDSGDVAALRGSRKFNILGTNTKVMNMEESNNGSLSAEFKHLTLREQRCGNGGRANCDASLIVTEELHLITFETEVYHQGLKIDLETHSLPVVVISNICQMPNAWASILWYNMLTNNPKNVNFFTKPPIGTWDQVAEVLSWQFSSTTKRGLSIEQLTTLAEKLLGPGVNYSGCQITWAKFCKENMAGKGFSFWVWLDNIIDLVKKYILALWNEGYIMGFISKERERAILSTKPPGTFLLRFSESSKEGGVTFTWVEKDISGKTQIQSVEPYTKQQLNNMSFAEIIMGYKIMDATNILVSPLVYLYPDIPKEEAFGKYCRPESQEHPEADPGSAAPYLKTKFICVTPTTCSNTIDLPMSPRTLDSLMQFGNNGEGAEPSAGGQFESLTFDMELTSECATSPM
72 kDa type IV collagenase, sequence (P08253 whole entry): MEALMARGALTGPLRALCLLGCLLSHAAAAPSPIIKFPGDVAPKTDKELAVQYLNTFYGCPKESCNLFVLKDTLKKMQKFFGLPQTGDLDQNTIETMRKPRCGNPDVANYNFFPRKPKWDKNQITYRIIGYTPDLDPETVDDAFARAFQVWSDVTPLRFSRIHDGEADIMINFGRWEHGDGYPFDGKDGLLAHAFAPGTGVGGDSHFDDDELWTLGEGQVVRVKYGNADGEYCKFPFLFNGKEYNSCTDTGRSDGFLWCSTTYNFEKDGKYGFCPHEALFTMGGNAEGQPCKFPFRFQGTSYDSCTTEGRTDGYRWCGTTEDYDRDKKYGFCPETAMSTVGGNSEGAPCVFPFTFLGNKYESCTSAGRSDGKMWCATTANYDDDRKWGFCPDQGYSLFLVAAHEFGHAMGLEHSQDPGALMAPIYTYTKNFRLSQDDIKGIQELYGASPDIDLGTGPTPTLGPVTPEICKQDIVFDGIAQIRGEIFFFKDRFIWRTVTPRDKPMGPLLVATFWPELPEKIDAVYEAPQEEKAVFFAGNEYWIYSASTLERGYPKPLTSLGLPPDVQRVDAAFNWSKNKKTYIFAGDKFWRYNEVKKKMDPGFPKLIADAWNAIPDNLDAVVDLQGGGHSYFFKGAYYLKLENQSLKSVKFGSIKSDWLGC
Bcl-2-like protein 10, sequence (Q9HD36 whole entry, the tested form may be a part): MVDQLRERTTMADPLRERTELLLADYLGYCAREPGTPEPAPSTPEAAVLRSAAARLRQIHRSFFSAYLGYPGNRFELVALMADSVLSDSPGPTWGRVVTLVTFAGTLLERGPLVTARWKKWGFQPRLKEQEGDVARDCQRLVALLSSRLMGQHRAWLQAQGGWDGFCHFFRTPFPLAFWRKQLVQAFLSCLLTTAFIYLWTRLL

In the case of `O=C(/C=C/c1ccco1)Nc1cccc(C(=O)Nc2ccccc2C(=O)O)c1`, the IC50 [1] was < 0.5 µM (active), the IC50 [2] was 23.1 µM (active) and the IC50 [3] was 97.4 µM (active). For the same molecule, the IC50 [4] was 39.8 µM (active) and the AC50 [5] was 18.6 µM (active).

In the case of `COc1ccccc1C(=O)Oc1cc(N)n(S(=O)(=O)c2ccc(C)cc2)n1`, the IC50 [6] was 99.9 µM (active), the IC50 [7] was > 50 µM (not active) and the IC50 [8] was > 50 µM (not active).

With `CCCc1cc(C(=O)Nc2cc(OC)c(Cl)cc2OC)no1` the EC50 [9] was 0.00815 µM (active).

With `CC(C)n1c(S)nc2c1c(=O)[nH]c(=O)n2C` the EC50 [10] was > 50 µM (not active).

For `COc1ccccc1NCCC(=O)OCC(=O)NCc1ccco1`, the IC50 [11] was 69.1 µM (inactive).

For `CCC1=NN2C(=N)/C(=C\c3ccc(SCc4ccco4)o3)C(=O)N=C2S1`, the EC50 [12] was 4.36 µM (active), the EC50 [13] was 6.85 µM (active) and the IC50 [14] was 21 µM (active). For the same molecule, the IC50 [15] was > 50 µM (not active), the CC50 [16] was > 100 µM (active) and the AC50 [5] was 16.2 µM (active).

In the case of `CCCN1CCC(N2CCCC(C(=O)N(C)CCc3ccc(OC)c(OC)c3)C2)CC1` (stereo not given), the AC50 [17] was 16.4 µM (active).

For `O=c1c(Oc2ccc(O)cc2)c(Cl)cnn1-c1ccccc1`, the IC50 [18] was 11.1 µM (inactive) and the IC50 [19] was 2.8 µM (active).
